Source: patent publication US20250375453A1, “HIGH-EFFICIENCY ANTIMICROBIAL COMPOSITION” (CM4CURE S.A., priority 2023, published 2025)

Legend:
[1] = test system: Pseudomonas aeruginosa (ATCC 15442); assay: Real-time microcalorimetric measurement of bacterial metabolic activity (heat flow, Calscreener); format: cell-based
Procedure: Pseudomonas aeruginosa (ATCC 15442) was grown overnight in TSB (tryptic soy broth) medium, before being diluted 1×10^7 fold in fresh TSB. Subsequently […] aliquots of diluted bacteria suspensions were respectively supplemented with 1, 2, 4, 6, 12 and 24 mg/L of chlorhexidine (digluconate solution, 20% in H2O, Merck). The aqueous solution of chlorhexidine was kept refrigerated according to the manufacturer's technical sheet. Chlorhexidine or mQH2O as a vehicle were added to the bacterial suspensions to obtain the given concentrations followed by a brief vortexing. Bacterial aliquots were then distributed in the dedicated non-activated inserts of a 48-well plate and grown for 24h or more under static conditions at 37 C using Calscreener technology to measure bacterial growth and metabolic activity in Real-Time as described in https://cordis.europa.eu/project/id/784514.
For the study of the combination of chlorhexidine and triafluocyl aforementioned diluted bacterial suspensions were supplemented with either chlorhexidine alone (1, 2, 4, 6, 12 mg/L) or mixed with triafluocyl (20 mg/L, Polpharma). Triafluocyl was stored in absolute ethanol in the refrigerator at a concentration of 3 mg/mL. Triafluocyl, chlorhexidine or both, and ethanol as a vehicle were added to the bacterial suspensions to obtain the given concentrations.
Pseudomonas aeruginosa (ATCC 15442) was grown overnight in TSB (tryptic soy broth) medium, before being diluted 1×10^7 fold in fresh TSB. Subsequently […] aliquots of diluted bacteria suspensions were respectively supplemented with […] of alexidine dihydrochloride (stock solution of 3 mg/mL in ethanol, Merck). […] The stock solutions of alexidine and fluometacyl were kept frozen according to the manufacturer's technical sheet. Alexidine alone or with fluometacyl, and ethanol as a vehicle were added to the bacterial suspensions to obtain the given concentrations followed by a brief vortexing. […]

[2] = test system: Staphylococcus aureus (MRSA, ATCC 6538); assay: as above; format: cell-based
Procedure: Staphylococcus aureus (MRSA, ATCC 6538) was grown overnight in TSB (tryptic soy broth) medium, before being diluted 1×10^6 fold in fresh TSB. Subsequently […] aliquots of diluted bacteria suspensions were respectively supplemented with 1 and 2 mg/L of chlorhexidine (digluconate solution, 20% in H2O, Merck). […] The aqueous solution of chlorhexidine and the ethanol-based solution of triafluocyl were kept refrigerated. Chlorhexidine, triafluocyl or both, and ethanol as a vehicle were added to the bacterial suspensions to obtain the given concentrations followed by a brief vortexing. Bacterial aliquots were then distributed in the dedicated non-activated inserts of a 48-well plate and grown for 24 h or more under static conditions at 37 C using Calscreener technology to measure bacterial growth and metabolic activity in Real-Time as described in https://cordis.europa.eu/project/id/784514.
Staphylococcus aureus (MRSA, ATCC 6538) was grown overnight in TSB (tryptic soy broth) medium, before being diluted 1×10^6 fold in fresh TSB. Subsequently […] aliquots of diluted bacteria suspensions were respectively supplemented with 0.25, 0.5 and 1 μg/mL of chlorhexidine (digluconate solution, 20% in H2O, Merck) or alexidine dihydrochloride (stock solution of 3 mg/mL in ethanol, Merck).
The aqueous solution of chlorhexidine and the ethanol-based solution of alexidine were kept refrigerated. Chlorhexidine, alexidine, and ethanol as a vehicle were added to the bacterial suspensions to obtain the given concentrations followed by a brief vortexing. Bacterial aliquots were then distributed in the dedicated non-activated inserts of a 48-well plate and grown for 24 h or more under static conditions at 37 C using Calscreener technology to measure bacterial growth and metabolic activity in Real-Time as described in https://cordis.europa.eu/project/id/784514.
Staphylococcus aureus (MRSA, ATCC 6538) was grown overnight in TSB (tryptic soy broth) medium, before being diluted 1×10^6 fold in fresh TSB. Subsequently […] aliquots of diluted bacteria suspensions were respectively supplemented with […] of alexidine dihydrochloride (stock solution of 3 mg/mL in ethanol, Merck). […] The ethanol-based solutions of alexidine and fluometacyl were stored at −20° C.
Alexidine alone or with fluometacyl, and ethanol as a vehicle were added to the bacterial suspensions to obtain the given concentrations followed by a brief vortexing. Bacterial aliquots were then distributed in the dedicated non-activated inserts of a 48-well plate and grown for 24 h or more under static conditions at 37 C using Calscreener technology to measure bacterial growth and metabolic activity in Real-Time.

[3] = test system: Vancomycin-resistant Enterococcus faecalis (VRE, ATCC BAA-2573); assay: Synergy checkerboard assay / broth micro-dilution MIC (ISO 20776-1 with modifications); format: cell-based
Procedure: • 1. Preparation of the inoculum of Vancomycin-resistant Enterococcus faecalis (VRE, ATCC BAA-2573). Inoculum is prepared by suspension of 1 colony of bacteria (medium size colony from Tryptic Soy agar plate) in 3 ml of Tryptic Soy broth (TSB) using a 200 μL tip. The solution is mixed by vortexing and incubated at 37° C. overnight (19-24 hours) under shaking at 200 rpm. • 2. Preparation of the Antimicrobial dilution on the day of the experiment. Stock solutions are performed with distilled water for all antimicrobial compound except for Fluometacyl (ethanol). Dilution for each condition is made in Mueller-Hinton broth (NMB). 50p of APIs dilution is added to wells of a 96 wells microplate (each condition in duplicate-triplicate). • Antimicrobial compounds were prepared as follows: • Fluometacyl (F) (4 mg/mL in 100% EtOH) served as a master stock. To obtain the final concentration of 40 μg/ml in the bacterial suspension, initial stock of 160 μg/ml in Mueller-Hinton broth (MHB) was prepared and further 2-fold diluted using the following serial dilution scheme: • (1): 40 μg/ml (160 μg/ml, prepared in MHB) • (2): 20 μg/ml (80 μg/ml, dilution in MHB) • (3): 10 μg/ml (40 μg/ml, dilution in MHB) • (4): 5 μg/ml (20 μg/ml, dilution in MHB) • (5): 2.5 μg/ml (10 μg/ml, dilution in MHB) • (6): 1.25 μg/ml (5 μg/ml, dilution in MHB) • Chlorhexidine acetate (CHLX) (2 mg/mL in H2O) served as a master stock. To obtain the final concentration of 4 μg/ml in the bacterial suspension, initial stock of 16 μg/ml in MHB was prepared and further 2-fold diluted using the following serial dilution scheme: • (1): 8 μg/ml (32 μg/ml, prepared in MHB) • (2): 4 μg/ml (16 μg/ml, prepared in MHB) • (3): 2 μg/ml (8 μg/ml, dilution in MHB) • (4): 1 μg/ml (4 μg/ml, dilution in MHB) • (5): 0.5 μg/ml (2 μg/ml, dilution in MHB) • (6): 0.25 μg/ml (1 μg/ml, dilution in MHB) • 3. Preparation of VRE. Before the experiment, the VRE bacterial suspension (incubated overnight) is diluted 100× in TSB in 4 mL of TSB and grown at 37 C under agitation 200 rpm until OD600 reaches 0.08 to 0.16. This corresponds to the cell density […]. 100 μl of the bacterial solution (OD600 ranging from 0.08 to 0.16) is added to 9 900 μL of Mueller-Hinton Broth (MHB) (dilution 1:100). • 4. Preparation of a 96-well plate. 100 μL of bacteria (diluted 1:100 in MHB from the point 3) is added in each well of the plate containing 100 μL of the serially diluted APIs alone or in combinations as shown in the p. 2. Bacteria should be added into the 96-well plate within the 30 minutes following the preparation of the bacteria in order to maintain the same number of CFU/mL. Plates are incubated at 37° C. overnight. A condition with MHB medium alone or bacteria without APIs will also be added as the control conditions. Since fluometacyl is dissolved in ethanol, extra conditions are added: MHB with ethanol in order to assess the effect of ethanol on bacterial growth. • Following scheme is applied: • 2 antibacterial compounds: 50 μL of a antimicrobial 1+50 μL of a antimicrobial 2+100 μL of bacterial suspension in MHB • 1 antibacterial compound: 50 μL of a drug 1/2+50 μL of MHB+100 μL of bacterial suspension in MHB • Growth control: 100 μL MHB (+/−Ethanol)+100 μL of bacterial suspension • BLANK: MHB only • 5. CFU counting of the initial challenge inoculum. 10 μL of the solution of the bacteria used as the positive control is diluted in 10 mL of TSB. 100 μL is spread on Tryptic Soy agar (done in triplicate) and incubated at 37° C. overnight • 6. Results. The MIC is the lowest concentration that inhibits completely the visible growth of the bacteria (no turbidity in a well). The OD at 600 nm is also recorded for each well as back-up data.
Synergy evaluation resulting from the comparison between activity of the combination of the antimicrobial compounds and their individual activities was represented as the Fractional Inhibitory Concentration (FIC) index value. […]

Candida albicans (CA) = assay: MIC in monotherapy and in combination therapy (ISO standard 20776-1); format: cell-based
From the text: (§1) Summary of MIC Values for Fluometacyl (FLC)+Chlorhexidine (CHX) Tested Against MRSA, Enterococcus faecalis (VRE), Pseudomonas aeruginosa (PA) and Candida albicans (CA).
(§2) By Minimum Inhibitory Concentration (MIC) one means the lowest concentration of antimicrobial that prevents visible growth of a microorganism (determined according to ISO standard 20776-1).
(§3) This finds an implication in combining many known antimicrobials together rather than discovering new chemical entities.

[4] = test system: Pseudomonas aeruginosa (PA); assay: as above; format: cell-based
From the text: as §1, §2, §3

[5] = test system: Staphylococcus aureus (MRSA); assay: as above; format: cell-based
From the text: as §1, §2, §3

[6] = cited from earlier work
[7] = MIC combination / MIC monotherapy

| MIC ([3]; Enterococcus faecalis, antimicrobial alone, read-out: MIC Monotherapy (X)) | MIC combination dual therapy (Y) ([3]; in FLC + CHX combination) | MIC Monotherapy (X) (Candida albicans (CA); antimicrobial alone) | MIC combination dual therapy (Y) (Candida albicans (CA); in FLC + CHX combination) | MIC Monotherapy (X) ([4]; antimicrobial alone) | MIC combination dual therapy (Y) ([4]; in FLC + CHX combination) | MIC ([5]; Staphylococcus aureus, MRSA, antimicrobial alone, read-out: MIC Monotherapy (X)) | MIC combination dual therapy (Y) ([5]; in FLC + CHX combination) | Compound | effect on growth (heat flow) ([1]; alexidine 4 mg/mL alone) | effect on growth (heat flow) ([2]; alexidine 1 mg/mL alone) | effect on metabolic activity (heat flow), compared with chlorhexidine ([2]; alexidine 0.25 and 0.5 mg/mL alone) | Ratio Y/X [3, 7] | Ratio Y/X [5, 7] | solubility in an aqueous environment or aqueous medium [6] | effect on growth (heat flow) ([1]; triafluocyl 20 mg/L alone) | effect on growth (heat flow) ([2]; triafluocyl 1 mg/L alone) |
| --- | --- | --- | --- | --- | --- | --- | --- | --- | --- | --- | --- | --- | --- | --- | --- | --- |
|  |  |  |  |  |  |  |  | alexidine | strong growth inhibition | full growth inhibition | noticeably stronger effect |  |  |  |  |  |
| 20 mg/mL | 2.5 to 10 mg/mL | Not detected | 20 mg/mL | Not detected | 20 mg/mL | 20 mg/mL | 5 to 10 mg/mL | CCCSc1nc(N[C@@H]2C[C@H]2c2ccc(F)c(F)c2)c2nnn([C@@H]3C[C@H](O)[C@@H](O)[C@H]3O)c2n1 [Fluometacyl, (1S,2R,3S,4R)-4-[7-[[(1R,2S)-2-(3,4-Difluorophenyl)cyclopropyl]amino]-5-(propylthio)-3H-1,2,3-triazolo[4,5-d]pyrimidin-3-yl]-1,2,3-cyclopentanetriol] |  |  |  | 0.125-0.5 | 0.25-0.5 | generally not soluble |  |  |
|  |  |  |  |  |  |  |  | CCCSc1nc(N[C@@H]2C[C@H]2c2ccc(F)c(F)c2)c2nnn([C@@H]3C[C@H](OCCO)[C@@H](O)[C@H]3O)c2n1 [Triafluocyl, (1S,2S,3R,5S)-3-[7-[(1R,2S)-2-(3,4-difluorophenyl)cyclopropylamino]-5-(propylthio)-3H-[1,2,3]-triazolo[4,5-d]pyrimidin-3-yl]-5-(2-hydroxyethoxy)-1,2-cyclopentanediol] |  |  |  |  |  | generally not soluble | does not inhibit the growth | doesn't affect the growth |
